# Data taken from ChEMBL document CHEMBL6109152, “Harnessing the SPOP E3 Ubiquitin Ligase via a Bridged Proteolysis Targeting Chimera (PROTAC) Strategy for Targeted Protein Degradation” (J Med Chem, 2025).
# Activity calls are given as the source filed them. The calls are words filed in the database; no cut-off is given here.
# How the values were obtained:
# [1] = molecular target: T1, Speckle-type POZ protein-Bromodomain-containing protein 2 (Homo sapiens) (UniProt P25440+O43791); assay: PROTAC activity at SPOP/BRD2 in human HT-29 cells assessed as induction of BRD2 degradation by measuring fold change at 2.5 uM incubated for 24 hrs by Western blot analysis (reference value: 1.00); format: cell-based
# [2] = molecular target: T2, Speckle-type POZ protein-Bromodomain-containing protein 4 (Homo sapiens, UniProt O60885+O43791); assay: PROTAC activity at SPOP/BRD4-L in human MDA-MB-231 cells assessed as induction of BRD4 long isoform degradation at 0.1 to 5 uM incubated for 24 hrs by Western blotting analysis; format: cell-based; details: dose 0.1-5 µM
# [3] = molecular target: T3, Speckle-type POZ protein-Bromodomain-containing protein 3 (Homo sapiens) (UniProt Q15059+O43791); assay: PROTAC activity at SPOP/BRD3 in human HT-29 cells assessed as induction of BRD3 degradation by measuring fold change at 2.5 uM incubated for 24 hrs by Western blot analysis (reference value: 1.00); format: cell-based
# [4] = molecular target: T1, Speckle-type POZ protein-Bromodomain-containing protein 2 (Homo sapiens); assay: PROTAC activity at SPOP/BRD2 in human HT-29 cells assessed as induction of BRD2 degradation by measuring fold change at 10 uM incubated for 24 hrs by Western blot analysis (reference value: 1.00); format: cell-based
# [5] = molecular target: T2, Speckle-type POZ protein-Bromodomain-containing protein 4; assay: PROTAC activity at SPOP/BRD4-S in human HT-29 cells assessed as induction of BRD4 short isoform degradation at 0.5 to 5 uM incubated for 24 hrs by Western blotting analysis; format: cell-based; details: dose 0.5-5 µM
# [6] = molecular target: T4, Bromodomain-containing protein 4 (Homo sapiens, UniProt O60885); assay: Inhibition of BRD4 in human HT-29 cells assessed as decrease in c-MYC protein level by measuring fold change at 10 uM incubated for 24 hrs by Western blot analysis (reference value: 1.00); format: cell-based
# [7] = molecular target: T2, Speckle-type POZ protein-Bromodomain-containing protein 4; assay: PROTAC activity at SPOP/BRD4-S in human HT-29 cells assessed as induction of BRD4 short isoform degradation by measuring fold change at 0.313 uM incubated for 24 hrs by Western blotting analysis (reference value: 1.00); format: cell-based
# [8] = molecular target: T2, Speckle-type POZ protein-Bromodomain-containing protein 4; assay: PROTAC activity at SPOP/BRD4-L in human HT-29 cells assessed as induction of BRD4 long isoform degradation at 0.5 to 5 uM incubated for 24 hrs by Western blotting analysis; format: cell-based; details: dose 0.5-5 µM
# [9] = system: HT-29; assay: Binding affinity to BRD4-L/GLP/SPOP in human HT-29 cells assessed as compound-BRD4-GLP-SPOP quaternary complex formation at 20 to 100 uM incubated for 1 hrs by pulldown based Western blot analysis; format: cell-based; details: dose 20-100 µM
# [10] = system: HT-29; assay: Antiproliferative activity against human HT-29 cells assessed as cell growth inhibition incubated for 3 days by WST-8 reagent based assay; format: functional
# [11] = molecular target: T2, Speckle-type POZ protein-Bromodomain-containing protein 4; assay: PROTAC activity at SPOP/BRD4-L in human HT-29 cells assessed as induction of BRD4 long isoform degradation by measuring fold change at 1.25 uM incubated for 24 hrs by Western blotting analysis (reference value: 1.00); format: cell-based
# [12] = molecular target: T2, Speckle-type POZ protein-Bromodomain-containing protein 4; assay: PROTAC activity at SPOP/BRD4-L in human HT-29 cells assessed as induction of BRD4 long isoform degradation by measuring fold change at 2.5 uM incubated for 24 hrs by Western blotting analysis (reference value: 1.00); format: cell-based
# [13] = molecular target: T1, Speckle-type POZ protein-Bromodomain-containing protein 2 (Homo sapiens); assay: PROTAC activity at SPOP/BRD2 in human HT-29 cells assessed as induction of BRD2 degradation by measuring fold change at 0.313 uM incubated for 24 hrs by Western blot analysis (reference value: 1.00); format: cell-based
# [14] = molecular target: T3, Speckle-type POZ protein-Bromodomain-containing protein 3 (Homo sapiens); assay: PROTAC activity at SPOP/BRD3 in human HT-29 cells assessed as induction of BRD3 degradation by measuring fold change at 10 uM incubated for 24 hrs by Western blot analysis (reference value: 1.00); format: cell-based
# [15] = molecular target: T4, Bromodomain-containing protein 4; assay: Inhibition of BRD4 in human HT-29 cells assessed as decrease in c-MYC protein level by measuring fold change at 2.5 uM incubated for 24 hrs by Western blot analysis (reference value: 1.00); format: cell-based
# [16] = molecular target: T1, Speckle-type POZ protein-Bromodomain-containing protein 2 (Homo sapiens); assay: PROTAC activity at SPOP/BRD2 in human HT-29 cells assessed as induction of BRD2 degradation at 5 uM measured after >=48 hrs by Western blot analysis; format: cell-based
# [17] = molecular target: T2, Speckle-type POZ protein-Bromodomain-containing protein 4; assay: PROTAC activity at SPOP/BRD4-S in human HT-29 cells assessed as induction of BRD4 short isoform degradation by measuring fold change at 0.625 uM incubated for 24 hrs by Western blotting analysis (reference value: 1.00); format: cell-based
# [18] = molecular target: T2, Speckle-type POZ protein-Bromodomain-containing protein 4; assay: PROTAC activity at SPOP/BRD4-S in human HT-29 cells assessed as induction of BRD4 short isoform degradation at 5 uM preincubated with MS1262 for 2 hrs followed by compound addition and measured after 24 hrs by Western blot analysis; format: cell-based
# [19] = system: HT-29; assay: Effect on BRD4 long isoform mRNA level in human HT-29 cells at 1 to 10 uM incubated for 24 hrs by RT-qPCR analysis; format: functional, cell-based; details: dose 1-10 µM
# [20] = molecular target: T4, Bromodomain-containing protein 4; assay: Inhibition of BRD4 in human HT-29 cells assessed as decrease in c-MYC protein level by measuring fold change at 0.313 uM incubated for 24 hrs by Western blot analysis (reference value: 1.00); format: cell-based
# [21] = molecular target: T2, Speckle-type POZ protein-Bromodomain-containing protein 4; assay: PROTAC activity at SPOP/BRD4-S in human HT-29 cells assessed as induction of BRD4 short isoform degradation at 5 uM incubated for 24 hrs by Western blotting analysis relative to control; format: cell-based
# [22] = molecular target: T4, Bromodomain-containing protein 4; assay: Inhibition of BRD4 in human HT-29 cells assessed as decrease in c-MYC protein level by measuring fold change at 5 uM incubated for 24 hrs by Western blot analysis (reference value: 1.00); format: cell-based
# [23] = molecular target: T4, Bromodomain-containing protein 4; assay: Inhibition of BRD4 in human HT-29 cells assessed as decrease in c-MYC protein level by measuring fold change at 0.156 uM incubated for 24 hrs by Western blot analysis (reference value: 1.00); format: cell-based
# [24] = molecular target: T2, Speckle-type POZ protein-Bromodomain-containing protein 4; assay: PROTAC activity at SPOP/BRD4-L in human HT-29 cells assessed as induction of BRD4 long isoform degradation by measuring fold change at 5 uM incubated for 24 hrs by Western blotting analysis (reference value: 1.00); format: cell-based
# [25] = molecular target: T1, Speckle-type POZ protein-Bromodomain-containing protein 2 (Homo sapiens); assay: PROTAC activity at SPOP/BRD2 in human HT-29 cells assessed as induction of BRD2 degradation by measuring fold change at 0.156 uM incubated for 24 hrs by Western blot analysis (reference value: 1.00); format: cell-based
# [26] = molecular target: T4, Bromodomain-containing protein 4; assay: Inhibition of BRD4 in human HT-29 cells assessed as decrease in c-MYC protein level by measuring fold change at 0.625 uM incubated for 24 hrs by Western blot analysis (reference value: 1.00); format: cell-based
# [27] = molecular target: T3, Speckle-type POZ protein-Bromodomain-containing protein 3 (Homo sapiens); assay: PROTAC activity at SPOP/BRD3 in human HT-29 cells assessed as induction of BRD3 degradation at 5 uM measured after >=48 hrs by Western blot analysis; format: cell-based
# [28] = molecular target: T4, Bromodomain-containing protein 4; assay: Inhibition of BRD4 in human HT-29 cells assessed as decrease in c-MYC protein level at 5 uM measured after 2 hrs by Western blot analysis; format: cell-based
# T2 sequence (O43791 whole entry, looked up, other chains not shown, canonical isoform): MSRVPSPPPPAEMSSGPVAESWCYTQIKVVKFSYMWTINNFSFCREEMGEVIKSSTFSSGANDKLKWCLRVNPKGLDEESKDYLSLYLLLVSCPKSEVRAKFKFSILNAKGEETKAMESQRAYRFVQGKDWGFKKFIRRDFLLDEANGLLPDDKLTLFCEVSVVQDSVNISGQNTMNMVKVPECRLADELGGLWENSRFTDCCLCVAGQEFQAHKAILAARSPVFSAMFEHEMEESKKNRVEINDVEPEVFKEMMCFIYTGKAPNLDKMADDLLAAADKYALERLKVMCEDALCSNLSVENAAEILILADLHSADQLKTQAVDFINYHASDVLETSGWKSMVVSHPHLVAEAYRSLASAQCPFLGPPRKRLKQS
# T1 sequence (O43791 whole entry, looked up, canonical isoform): as the sequence (O43791 whole entry, looked up, other chains not shown, canonical isoform) above
# T1 sequence (P25440 whole entry, looked up, canonical isoform): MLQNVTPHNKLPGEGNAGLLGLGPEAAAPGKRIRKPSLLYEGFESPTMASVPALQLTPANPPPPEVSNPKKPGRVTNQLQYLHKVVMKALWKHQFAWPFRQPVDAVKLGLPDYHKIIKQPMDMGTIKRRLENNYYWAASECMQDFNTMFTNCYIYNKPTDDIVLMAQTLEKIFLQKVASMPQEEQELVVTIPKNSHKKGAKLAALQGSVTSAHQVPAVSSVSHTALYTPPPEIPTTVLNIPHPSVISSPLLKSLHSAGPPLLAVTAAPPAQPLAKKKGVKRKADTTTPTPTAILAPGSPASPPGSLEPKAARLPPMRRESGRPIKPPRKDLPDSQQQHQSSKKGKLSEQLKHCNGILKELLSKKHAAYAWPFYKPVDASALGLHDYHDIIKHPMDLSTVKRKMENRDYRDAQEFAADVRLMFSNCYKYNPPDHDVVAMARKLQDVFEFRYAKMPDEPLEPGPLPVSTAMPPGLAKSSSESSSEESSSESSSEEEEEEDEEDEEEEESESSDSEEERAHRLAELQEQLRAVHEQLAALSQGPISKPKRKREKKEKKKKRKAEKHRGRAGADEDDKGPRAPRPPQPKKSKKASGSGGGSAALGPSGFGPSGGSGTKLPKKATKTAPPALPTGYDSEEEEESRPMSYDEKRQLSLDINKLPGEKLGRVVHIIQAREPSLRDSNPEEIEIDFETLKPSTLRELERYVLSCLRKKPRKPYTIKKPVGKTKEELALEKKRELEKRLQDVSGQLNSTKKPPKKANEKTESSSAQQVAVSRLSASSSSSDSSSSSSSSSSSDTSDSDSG
# T3 sequence (O43791 whole entry, looked up): as the sequence (O43791 whole entry, looked up, other chains not shown, canonical isoform) above
# T3 sequence (Q15059 whole entry, looked up): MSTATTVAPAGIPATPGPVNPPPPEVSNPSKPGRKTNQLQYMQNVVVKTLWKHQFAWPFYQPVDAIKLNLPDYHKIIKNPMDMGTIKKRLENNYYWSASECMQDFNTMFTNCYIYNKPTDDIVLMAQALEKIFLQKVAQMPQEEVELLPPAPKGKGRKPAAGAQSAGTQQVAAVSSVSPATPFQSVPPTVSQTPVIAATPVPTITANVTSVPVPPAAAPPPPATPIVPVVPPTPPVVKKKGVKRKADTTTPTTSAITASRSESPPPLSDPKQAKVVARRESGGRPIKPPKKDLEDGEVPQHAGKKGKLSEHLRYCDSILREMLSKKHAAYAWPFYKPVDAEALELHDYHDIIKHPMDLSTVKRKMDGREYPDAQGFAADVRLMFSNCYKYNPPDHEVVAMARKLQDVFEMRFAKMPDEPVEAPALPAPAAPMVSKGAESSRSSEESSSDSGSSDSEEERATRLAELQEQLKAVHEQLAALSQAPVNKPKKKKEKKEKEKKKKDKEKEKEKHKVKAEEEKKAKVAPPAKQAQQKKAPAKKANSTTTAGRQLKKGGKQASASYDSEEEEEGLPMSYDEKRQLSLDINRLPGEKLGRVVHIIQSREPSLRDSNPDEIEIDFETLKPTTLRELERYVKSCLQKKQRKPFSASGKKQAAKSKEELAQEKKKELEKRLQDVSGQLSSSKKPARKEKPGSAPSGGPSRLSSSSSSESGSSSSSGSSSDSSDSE
structure (smiles),measurement,setting,value
COc1cc2c(NC3CCN(CCCC(=O)NCCCCCCCCCCNC(=O)C[C@@H]4N=C(c5ccc(Cl)cc5)c5c(sc(C)c5C)-n5c(C)nnc54)CC3)cc(N3CCOCC3)nc2cc1OCCCN1CCCC1,fold change (FC),[1],1
same,Activity,[2],Active
same,fold change (FC),[3],0.7
same,fold change (FC),[4],0.7
same,Activity,[5],Active
same,fold change (FC),[6],0.03
same,fold change (FC),[7],1.2
same,Activity,[8],inactive
same,Activity,[9],Active
same,GI50,"[10]; HT-29, 72 h, time 3 day",4.5 µM
same,Activity,[10]; time 3.0 day,Dose-dependent-effect
same,fold change (FC),[11],1.2
same,fold change (FC),[12],1.2
same,fold change (FC),[13],1.2
same,fold change (FC),[14],0.5
same,fold change (FC),[15],0.1
same,Activity,[16],Active
same,fold change (FC),[17],0.9
same,Activity,[18],inactive
same,Activity,[19],inactive
same,fold change (FC),[20],1
same,Activity,[21],> 50%
same,fold change (FC),[22],0.03
same,fold change (FC),[23],1
same,fold change (FC),[24],0.7
same,fold change (FC),[25],1.3
same,fold change (FC),[26],0.7
same,Activity,[27],Active
same,inhibition,[28],Active
